In PMC8920385, “Design, synthesis and biological evaluation of a series of dianilinopyrimidines as EGFR inhibitors” (Journal of Enzyme Inhibition and Medicinal Chemistry, 2022):

Legend:
[1] = system: L02 cells; assay: Cytotoxicity evaluation (MTT assay), L02 normal cells; conditions: Homo sapiens, L02, read-out: IC50 L02
Procedure: Three tumour cells with high expression of EGFR^wt were used to test the antitumor activity of the compounds including, A549 (Human non-small-cell lung cancer cell line) cells, PC-3 (Human prostate cancer cell line) cells, and HepG2 (Human hepatocellular carcinomas cell line) cells. They were all purchased from the Shanghai Cell Bank of the Chinese Academy of Sciences. L02 (normal human liver cell line) cells were also used to evaluate the cytotoxicity. […] The IC50 values were calculated from the dose − response curve under Graph-Pad Prism.

[2] = system: PC-3 cells; assay: Cytotoxicity evaluation (MTT assay), PC-3; assay type: cell-based; conditions: Homo sapiens, mean ± SD of three replicates
[3] = system: HepG2 cells; assay: Cytotoxicity evaluation (MTT assay), HepG2; assay type: cell-based; conditions: Homo sapiens, mean ± SD of three replicates
[4] = system: A549 cells; assay: Cytotoxicity evaluation (MTT assay), A549; assay type: cell-based; conditions: Homo sapiens, mean ± SD of three replicates
[5] = target: T1, wild type EGFR tyrosine kinase (EGFR^wt) (Homo sapiens, UniProt P00533); assay: In vitro EGFR^wt-TK assay (ELISA); assay type: biochemical; conditions: mean ± SD of three replicates; for EGFR^wt-TK inhibition rate / inhibition at 1 µM: 1 μM; for inhibition at 1 µM: read-out: EGFR^wt-TK inhibition rate
T1 construct: purchased PTM Bio; Co., Ltd
T1 sequence (P00533 25-1210): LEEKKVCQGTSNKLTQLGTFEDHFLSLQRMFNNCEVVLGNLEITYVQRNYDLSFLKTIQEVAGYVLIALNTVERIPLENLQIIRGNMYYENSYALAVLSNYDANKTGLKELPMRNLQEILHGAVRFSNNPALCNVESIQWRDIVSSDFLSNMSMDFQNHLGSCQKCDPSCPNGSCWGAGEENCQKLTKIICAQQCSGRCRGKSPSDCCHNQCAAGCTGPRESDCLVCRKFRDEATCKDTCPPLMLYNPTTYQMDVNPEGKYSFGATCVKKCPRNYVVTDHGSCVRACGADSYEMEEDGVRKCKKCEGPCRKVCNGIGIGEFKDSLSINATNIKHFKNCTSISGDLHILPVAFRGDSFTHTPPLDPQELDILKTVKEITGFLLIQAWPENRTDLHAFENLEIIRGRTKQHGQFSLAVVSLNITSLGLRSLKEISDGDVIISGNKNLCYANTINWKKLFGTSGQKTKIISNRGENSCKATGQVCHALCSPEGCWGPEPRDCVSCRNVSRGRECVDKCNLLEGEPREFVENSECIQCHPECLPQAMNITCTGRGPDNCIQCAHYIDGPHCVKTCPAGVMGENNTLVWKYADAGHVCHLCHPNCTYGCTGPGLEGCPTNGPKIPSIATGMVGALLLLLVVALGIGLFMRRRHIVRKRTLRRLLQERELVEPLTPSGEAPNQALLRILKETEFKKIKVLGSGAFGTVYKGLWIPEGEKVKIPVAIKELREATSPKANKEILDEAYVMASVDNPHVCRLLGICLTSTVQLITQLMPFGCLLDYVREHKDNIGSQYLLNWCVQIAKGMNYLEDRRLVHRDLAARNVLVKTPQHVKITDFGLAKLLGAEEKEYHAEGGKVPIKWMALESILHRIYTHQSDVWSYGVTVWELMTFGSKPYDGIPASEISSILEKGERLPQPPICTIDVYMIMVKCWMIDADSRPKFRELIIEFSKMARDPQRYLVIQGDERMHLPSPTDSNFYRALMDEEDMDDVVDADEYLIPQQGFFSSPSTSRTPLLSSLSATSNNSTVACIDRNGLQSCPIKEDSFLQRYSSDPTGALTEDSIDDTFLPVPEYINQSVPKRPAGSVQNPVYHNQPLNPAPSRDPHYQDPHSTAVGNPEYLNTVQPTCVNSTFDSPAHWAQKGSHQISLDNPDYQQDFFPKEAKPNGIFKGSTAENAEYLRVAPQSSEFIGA

[6] = system: A549 cells; assay: Cell apoptosis analysis, Annexin V-FITC/PI flow cytometry; assay type: cell-based, Human; conditions: A549, 10 μM, 48 h
From the text: Apoptosis of A549 cells is an efficient route to clear out the extra cancer cells in the tissue homeostasis.

[7] = system: A549 cells; assay: Cell cycle analysis, PI flow cytometry; conditions: 48 h
Procedure: The experimental data of apoptosis and cell cycle for A549 cells were evaluated in BD Accuri C6 flow cytometry (American BD Corporation Shanghai Co., Ltd.), provided by the School of Pharmaceutical Sciences, Guizhou University.
(B) Profiles obtained by FACS. The percentages for different phases of the cell cycle were illustrated in the histogram.

Compound | melting point | EGFR^wt-TK inhibition rate [5] | inhibition at 1 µM [5] | IC50 [5] | IC50 [1] | IC50 [2] | IC50 [3] | IC50 [4] | early apoptotic cells (Q2-4) [6] | late apoptotic cells (Q2-2) [6] | Percentage of cells in G2/M phase ([7]; A549, 1 μM) | Percentage of cells in G2/M phase ([7]; A549, 10 μM)
COc1cc2ncnc(Nc3ccc(F)c(Cl)c3)c2cc1OCCCN1CCOCC1 [Gefitinib, reference compound] |  |  |  |  |  |  |  |  | 7.77% | 10.62% |  | 21.71%
CNC(=O)c1ccsc1Nc1nc(Nc2ccc(NC(=O)c3ccc(OC)cc3)cc2)ncc1C(F)(F)F [4a, 2-{2-[4-(4-Methoxy-benzoylamino)-phenylamino]-5-trifluoromethyl-pyrimidin-4-ylamino}-thiophene-3-carboxylic acid methylamide] | > 250 °C |  | 31.6 ± 3.27% |  | > 40 µM | 12.3 ± 0.89 µM | 11.5 ± 0.77 µM | 9.32 ± 0.68 µM |  |  |  | 

Continued, in another order:

melting point | EGFR^wt-TK inhibition rate [5] | inhibition at 1 µM [5] | IC50 [5] | Compound | IC50 [1] | IC50 [2] | IC50 [3] | IC50 [4] | early apoptotic cells (Q2-4) [6] | late apoptotic cells (Q2-2) [6] | Percentage of cells in G2/M phase ([7]; A549, 1 μM) | Percentage of cells in G2/M phase ([7]; A549, 10 μM)
217.1 to 219 °C | 61.69 ± 2.08% | > 50% | 0.32 ± 0.047 µM | CNC(=O)c1ccsc1Nc1nc(Nc2ccc(NC(=O)c3cccc(F)c3)cc2)ncc1C(F)(F)F [4c, 2-{2-[4–(3-Fluoro-benzoylamino)-phenylamino]-5-trifluoromethyl-pyrimidin-4-ylamino}-thiophene-3-carboxylic acid methylamide] | > 40 µM | 2.46 ± 0.42 µM | 2.21 ± 0.5 µM | 0.56 ± 0.12 µM | 10.70% | 57.84% | 51.09% | 59.32%
224.8 to 226.3 °C | 52.08 ± 1.93% | > 50% | 0.89 ± 0.12 µM | CNC(=O)c1ccsc1Nc1nc(Nc2ccc(NC(=O)c3ccccc3F)cc2)ncc1C(F)(F)F [4b, 2-{2-[4-(2-Fluoro-benzoylamino)-phenylamino]-5-trifluoromethyl-pyrimidin-4-ylamino}-thiophene-3-carboxylic acid methylamide] | > 40 µM | 7.81 ± 0.53 µM | 7.62 ± 0.46 µM | 4.33 ± 0.59 µM |  |  |  | 
> 250 °C |  | 52.1 ± 1.93% | 0.59 ± 0.15 µM | CNC(=O)c1ccsc1Nc1nc(Nc2ccc(Nc3c(NCCNC(=O)C=Cc4ccc(F)cc4)c(=O)c3=O)cc2)ncc1C(F)(F)F [8g, 2-{2-[4–(2-{2-[3–(4-Fluoro-phenyl)-acryloylamino]-ethylamino}-3,4-dioxo-cyclobut-1-enylamino)-phenylamino]-5-trifluoromethyl-pyrimidin-4-ylamino}-thiophene-3-carboxylic acid methylamide] | > 40 µM | 6.08 ± 0.94 µM | 5.33 ± 0.58 µM | 3.14 ± 0.92 µM |  |  |  | 
